We go through 20 compounds from ChEMBL document CHEMBL5053543, “Macrocyclic BACE1 inhibitors with hydrophobic cross-linked structures: Optimization of ring size and ring structure” (Bioorg Med Chem, 2021).

What is called IC50 is the concentration that inhibits the measured activity by half. In general, inhibition refers to the relative decrease from the control value, in per cent.

The target in one experiment is T1, Beta-secretase 1 (Homo sapiens, UniProt P56817). Kind of experiment: Inhibition of recombinant BACE1 (unknown origin) using H-Ile-Lys-Thr-Glu-Glu-Ile-Ser-Glu-Val-Asn-Leu-Asp-Ala-Glu-Phe-Arg-His-Asp-Ser-Gly-NH2 peptide as substrate measured after 90 mins by analytical HPLC analysis.
T1 sequence (P56817 whole entry): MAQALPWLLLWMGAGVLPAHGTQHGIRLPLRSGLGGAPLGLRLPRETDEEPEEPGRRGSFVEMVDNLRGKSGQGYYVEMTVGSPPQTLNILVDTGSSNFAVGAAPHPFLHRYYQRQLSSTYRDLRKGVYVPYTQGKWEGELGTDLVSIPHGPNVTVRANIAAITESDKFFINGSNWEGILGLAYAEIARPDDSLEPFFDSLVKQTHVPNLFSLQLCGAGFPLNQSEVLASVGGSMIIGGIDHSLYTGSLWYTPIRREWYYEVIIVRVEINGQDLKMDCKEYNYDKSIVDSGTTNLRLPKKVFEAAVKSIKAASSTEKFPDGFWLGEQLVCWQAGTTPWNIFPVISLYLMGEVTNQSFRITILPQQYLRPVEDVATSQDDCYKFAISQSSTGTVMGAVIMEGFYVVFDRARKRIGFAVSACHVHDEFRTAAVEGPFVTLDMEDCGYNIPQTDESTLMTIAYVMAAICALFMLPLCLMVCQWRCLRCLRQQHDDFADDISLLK
For `CCC[C@@H]1NC(=O)[C@@H](NC(=O)[C@@H](N)CCC(=O)O)[C@@H](C)OC/C=C\C[C@@H]([C@H](O)CNc2ccc(C)cc2)NC1=O`, the IC50 worked out at 117 µM.
Consider `CCC[C@@H]1NC(=O)[C@@H](NC(=O)[C@@H](N)CCC(=O)O)C/C=C/CC[C@@H]([C@H](O)CNc2ccc(C)cc2)NC1=O`, for which the half-maximal inhibitory concentration (IC50) was greater than 1500 µM.
Still for that read-out and setting: under `CCC[C@@H]1NC(=O)[C@@H](NC(=O)[C@@H](N)CCC(=O)O)COC/C=C/CC[C@@H]([C@H](O)CNc2ccc(C)cc2)NC1=O` stands greater than 1500 µM; under `CCC[C@@H]1NC(=O)[C@@H](NC(=O)[C@@H](N)CCC(=O)O)[C@H](C)OCCCC[C@@H]([C@H](O)CNc2ccc(C)cc2)NC1=O`, 135 µM.
Same read-out and setting: with `CCC[C@@H]1NC(=O)[C@@H](NC(=O)[C@@H](N)CCC(=O)O)C(C)(C)OCCCC[C@@H]([C@H](O)CNc2ccc(CC(=O)O)cc2)NC1=O` the figure was 1.6 µM.
Same read-out and setting: with `CCC[C@@H]1NC(=O)[C@@H](NC(=O)[C@@H](N)CCC(=O)O)[C@@H](C)OCCCC[C@@H]([C@H](O)CNc2ccc(C)cc2)NC1=O` the figure was 1000 µM.
On to `CCC[C@@H]1NC(=O)[C@@H](NC(=O)[C@@H](N)CCC(=O)O)CCCCCC[C@@H]([C@H](O)CNc2ccc(C)cc2)NC1=O`, for which the IC50 stood at 780 µM.
Regarding `CCC[C@@H]1NC(=O)[C@@H](NC(=O)[C@@H](N)CCC(=O)O)CC/C=C/CC[C@@H]([C@H](O)CNc2ccc(C)cc2)NC1=O`, the IC50 came out at 380 µM.
The same measure, in the same setting: under `CCC[C@@H]1NC(=O)[C@@H](NC(=O)[C@@H](N)CCC(=O)O)[C@H](C)OC/C=C/C[C@@H]([C@H](O)CNc2ccc(C)cc2)NC1=O` stands 1000 µM; under `CCC[C@@H]1NC(=O)[C@@H](NC(=O)[C@@H](N)CCC(=O)O)COCCCCC[C@@H]([C@H](O)CNc2ccc(C)cc2)NC1=O`, greater than 1500 µM; under `CCC[C@@H]1NC(=O)[C@@H](NC(=O)[C@@H](N)CCC(=O)O)COC/C=C\CC[C@@H]([C@H](O)CNc2ccc(C)cc2)NC1=O`, greater than 1500 µM.
Still for that read-out and setting: with `CCC[C@@H]1NC(=O)[C@@H](NC(=O)[C@@H](N)CCC(=O)O)[C@@H](C)OC/C=C/C[C@@H]([C@H](O)CNc2ccc(C)cc2)NC1=O` the figure was 1420 µM; with `CCC[C@@H]1NC(=O)[C@@H](NC(=O)[C@@H](N)CCC(=O)O)C(C)(C)OC/C=C\C[C@@H]([C@H](O)CNc2ccc(C)cc2)NC1=O`, 3.9 µM.
The same measure, in the same setting: with `CCC[C@@H]1NC(=O)[C@@H](NC(=O)[C@@H](N)CCC(=O)O)C/C=C\CC[C@@H]([C@H](O)CNc2ccc(C)cc2)NC1=O` the figure was 1050 µM; with `CCC[C@@H]1NC(=O)[C@@H](NC(=O)[C@@H](N)CCC(=O)O)C(C)(C)OC/C=C\C[C@@H]([C@H](O)CNc2ccc(CC(=O)O)cc2)NC1=O`, 1.2 µM.
Turning to `CCC[C@@H]1NC(=O)[C@@H](NC(=O)[C@@H](N)CCC(=O)O)CC/C=C\CC[C@@H]([C@H](O)CNc2ccc(C)cc2)NC1=O`, the IC50 was determined as 1410 µM.
Consider `CCC[C@@H]1NC(=O)[C@@H](NC(=O)[C@@H](N)CCC(=O)O)[C@H](C)OC/C=C\C[C@@H]([C@H](O)CNc2ccc(C)cc2)NC1=O`, for which the IC50 amounted to 11.7 µM.
On the same count and under the same terms, with `CCC[C@H](NC(=O)[C@@H](NC(=O)[C@@H](N)CCC(=O)O)[C@@H](C)CC)C(=O)N[C@@H](CC(C)C)[C@H](O)CNc1ccc(C)cc1` the figure was 6.1 µM.
Still for that read-out and setting: under `CCC[C@@H]1NC(=O)[C@@H](NC(=O)[C@@H](N)CCC(=O)O)CCCCC[C@@H]([C@H](O)CNc2ccc(C)cc2)NC1=O` stands 1400 µM; under `CCC[C@@H]1NC(=O)[C@@H](NC(=O)[C@@H](N)CCC(=O)O)C(C)(C)OCCCC[C@@H]([C@H](O)CNc2ccc(C)cc2)NC1=O`, 6.1 µM.

A further experiment addresses T1, Beta-secretase 1. Kind of experiment: Inhibition of recombinant BACE1 (unknown origin) at 1500 uM using H-Ile-Lys-Thr-Glu-Glu-Ile-Ser-Glu-Val-Asn-Leu-Asp-Ala-Glu-Phe-Arg-His-Asp-Ser-Gly-NH2 peptide as substrate measured after 90 mins by analytical HPLC analysis relative to control.
Consider `CCC[C@@H]1NC(=O)[C@@H](NC(=O)[C@@H](N)CCC(=O)O)C/C=C/CC[C@@H]([C@H](O)CNc2ccc(C)cc2)NC1=O`, for which the inhibition stood at 20%.
The same measure, in the same setting: with `CCC[C@@H]1NC(=O)[C@@H](NC(=O)[C@@H](N)CCC(=O)O)COC/C=C/CC[C@@H]([C@H](O)CNc2ccc(C)cc2)NC1=O` the figure was 20%; with `CCC[C@@H]1NC(=O)[C@@H](NC(=O)[C@@H](N)CCC(=O)O)COCCCCC[C@@H]([C@H](O)CNc2ccc(C)cc2)NC1=O`, 20%; with `CCC[C@@H]1NC(=O)[C@@H](NC(=O)[C@@H](N)CCC(=O)O)COC/C=C\CC[C@@H]([C@H](O)CNc2ccc(C)cc2)NC1=O`, 20%.
